The results in this text go back to ChEMBL document CHEMBL3132792, “Exploring the effect of N-substitution in nor-lobelane on the interaction with VMAT2: discovery of a potential clinical candidate for treatment of methamphetamine abuse” (Medchemcomm, 2013).

pKi: −log10 of the molar value.

In general, pKi refers to the negative decadic logarithm of the Ki, by convention in mol/L. High values mean a small Ki, low ones a large Ki.

The target in experiment [1] is T1, Synaptic vesicular amine transporter (Rattus norvegicus, UniProt Q01827). The experiment can be described thus: Inhibition of [3H]DA uptake at VMAT2 in rat striatal synaptic vesicles.
Experiment [2] addresses T1, Synaptic vesicular amine transporter. The experiment can be described thus: Inhibition of [3H]DTBZ binding to VMAT2 in rat synaptic vesicle membranes. Type of experiment: cell membranes.

T1 sequence (Q01827 whole entry): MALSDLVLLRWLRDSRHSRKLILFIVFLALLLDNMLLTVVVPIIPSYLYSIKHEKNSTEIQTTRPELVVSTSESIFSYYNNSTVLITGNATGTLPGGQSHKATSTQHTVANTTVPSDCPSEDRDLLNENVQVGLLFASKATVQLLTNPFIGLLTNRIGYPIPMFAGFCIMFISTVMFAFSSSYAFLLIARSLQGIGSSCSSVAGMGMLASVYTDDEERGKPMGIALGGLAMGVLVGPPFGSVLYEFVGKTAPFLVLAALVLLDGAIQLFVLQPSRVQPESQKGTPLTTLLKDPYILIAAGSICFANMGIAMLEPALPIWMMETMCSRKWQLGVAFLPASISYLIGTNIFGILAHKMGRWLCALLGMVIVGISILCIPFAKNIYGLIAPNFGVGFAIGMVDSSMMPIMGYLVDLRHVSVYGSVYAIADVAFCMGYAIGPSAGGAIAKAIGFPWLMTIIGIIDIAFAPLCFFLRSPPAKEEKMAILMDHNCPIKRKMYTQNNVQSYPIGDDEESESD

In experiment [1], `c1ccc(CC[C@H]2CCC[C@@H](CCc3ccccc3)N2)cc1` had a pKi of 7.36. Compound `CCN1[C@@H](CCc2ccccc2)CCC[C@H]1CCc1ccccc1` gave a negative-log Ki (pKi) in experiment [1] of 7.22. Still for that read-out and setting: as for `CCCN1[C@@H](CCc2ccccc2)CCC[C@H]1CCc1ccccc1`, the figure is 7.06.

For the compound `COC(=O)CN1[C@@H](CCc2ccccc2)CCC[C@H]1CCc1ccccc1`, the pKi in experiment [1] was 6.47; in experiment [2] it was 5.36. The corresponding values for `OCCN1[C@@H](CCc2ccccc2)CCC[C@H]1CCc1ccccc1` are 6.77 and 5.84. `N#CCN1[C@@H](CCc2ccccc2)CCC[C@H]1CCc1ccccc1`: the values for the pKi in experiment [1] and in experiment [2] were 5.35 and 4.65, respectively. The corresponding values for `NCCN1[C@@H](CCc2ccccc2)CCC[C@H]1CCc1ccccc1` are 6.29 and 5.25. For `CN(C)CCN1[C@@H](CCc2ccccc2)CCC[C@H]1CCc1ccccc1` the same measures were 6.74 and 5.02. For `N=C(N)NCCN1[C@@H](CCc2ccccc2)CCC[C@H]1CCc1ccccc1` the same measures were 6.17 and 5.46.

Take `CN(C)N1[C@@H](CCc2ccccc2)CCC[C@H]1CCc1ccccc1`: the pKi in experiment [1] is 7.27; in experiment [2] it was under 4.00.

In the case of `OC[C@H](O)CN1[C@@H](CCc2ccccc2)CCC[C@H]1CCc1ccccc1`, the results for the pKi in experiment [1] and in experiment [2] were 6.72 and 6.25, respectively. For `OC[C@@H](O)CN1[C@@H](CCc2ccccc2)CCC[C@H]1CCc1ccccc1` the same measures were 6.07 and 5.89. For `OC[C@H](O)CN1[C@@H](CCc2ccc3c(c2)OCO3)CCC[C@H]1CCc1ccc2c(c1)OCO2` the same measures were 6.80 and 5.89. For `OC[C@@H](O)CN1[C@@H](CCc2ccc3c(c2)OCO3)CCC[C@H]1CCc1ccc2c(c1)OCO2` the same measures were 6.12 and 5.25. For the compound `OC[C@H](O)CN1[C@@H](CCc2cccc(F)c2)CCC[C@H]1CCc1cccc(F)c1`, the negative-log Ki (pKi) in experiment [1] was 6.72; in experiment [2], 6.00. Turning to `OC[C@@H](O)CN1[C@@H](CCc2cccc(F)c2)CCC[C@H]1CCc1cccc(F)c1`, the results for the pKi in experiment [1] and in experiment [2] were 5.99 and 5.97, respectively. As to `COc1ccccc1CC[C@H]1CCC[C@@H](CCc2ccccc2OC)N1C[C@@H](O)CO`, the pKi in experiment [1] was 6.31; in experiment [2] it was 5.98. For `COc1ccccc1CC[C@H]1CCC[C@@H](CCc2ccccc2OC)N1C[C@H](O)CO`, the pKi was 6.10 in experiment [1] and 5.73 in experiment [2]. For `COc1cccc(CC[C@H]2CCC[C@@H](CCc3cccc(OC)c3)N2C[C@@H](O)CO)c1` the same measures were 6.85 and 6.34. For `COc1cccc(CC[C@H]2CCC[C@@H](CCc3cccc(OC)c3)N2C[C@H](O)CO)c1` the same measures were 6.28 and 5.56. Turning to `OC[C@H](O)CN1[C@@H](CCc2ccc(Cl)cc2Cl)CCC[C@H]1CCc1ccc(Cl)cc1Cl`, the pKi in experiment [1] was 6.85; in experiment [2], 4.98.

As to `OC[C@@H](O)CN1[C@@H](CCc2ccc(Cl)cc2Cl)CCC[C@H]1CCc1ccc(Cl)cc1Cl`, the pKi in experiment [1] was 7.05; in experiment [2], 4.86. As for `OC[C@H](O)CN1[C@@H](CCc2cccc3ccccc23)CCC[C@H]1CCc1cccc2ccccc12`, the negative logarithm of the Ki (pKi) in experiment [1] is 7.52; in experiment [2] it was 6.51.

Turning to `OC[C@@H](O)CN1[C@@H](CCc2cccc3ccccc23)CCC[C@H]1CCc1cccc2ccccc12`, the pKi was 7.10 in experiment [1] and 6.89 in experiment [2]. For `OC[C@H](O)CN1[C@@H](CCc2ccc(-c3ccccc3)cc2)CCC[C@H]1CCc1ccc(-c2ccccc2)cc1`, the pKi in experiment [1] was 6.10; in experiment [2], under 4.00. As to `OC[C@@H](O)CN1[C@@H](CCc2ccc(-c3ccccc3)cc2)CCC[C@H]1CCc1ccc(-c2ccccc2)cc1`, the negative logarithm of the Ki (pKi) was 5.65 in experiment [1] and 4.04 in experiment [2]. In the case of `FC(F)Oc1ccc(CC[C@H]2CCC[C@@H](CCc3ccc(OC(F)F)cc3)N2)cc1`, the pKi in experiment [1] is 7.64; in experiment [2] it was 5.76. For `OC[C@H](O)CN1[C@@H](CCc2ccc(OC(F)F)cc2)CCC[C@H]1CCc1ccc(OC(F)F)cc1` the same measures were 7.22 and 6.28. For `COc1ccc(F)c(CC[C@H]2CCC[C@@H](CCc3cc(OC)ccc3F)N2)c1` the same measures were 7.41 and 6.03. For `COc1ccc(F)c(CC[C@H]2CCC[C@@H](CCc3cc(OC)ccc3F)N2C[C@@H](O)CO)c1` the same measures were 6.80 and 6.68. For the compound `Fc1cc(F)cc(CC[C@H]2CCC[C@@H](CCc3cc(F)cc(F)c3)N2)c1`, the pKi in experiment [1] was 7.37; in experiment [2], 5.28. The corresponding values for `OC[C@H](O)CN1[C@@H](CCc2cc(F)cc(F)c2)CCC[C@H]1CCc1cc(F)cc(F)c1` are 6.98 and 6.21.

In the case of `COc1ccc(C[C@H]2CCC[C@@H](Cc3ccc(OC)cc3)N2)cc1`, the figures for the pKi in experiment [1] and in experiment [2] were 7.32 and 4.88, respectively. The corresponding values for `COc1ccc(C[C@H]2CCC[C@@H](Cc3ccc(OC)cc3)N2C[C@@H](O)CO)cc1` are 6.24 and 4.04.
